Assay [1] deals with sensory panel of 5 to 8 trained persons. The conditions noted are these: comparison value for MSG, no source or test given; cited from earlier work.
For assay [2] the test system is unchanged. Briefly: Sensory panel tasting of umami intensity in water. Format: in vivo, human. Particulars: for Intense umami / No umami / Umami: water, count of tasters on 3-point umami scale; for threshold (umami) / threshold (umami), preferably: in water. As to the method:
(§1) The sensory tests were performed in a sensory panel room at 20-25° C. The sensory panel consisted of 5 to 8 trained persons. The technical tasting was measured versus a control sample. Tasters were asked to judge the different products according to umami intensity on a 3-point scale (no umami, umami and intense umami). Additionally the tasters were asked to objectively describe the prototype with comments.
The stereoisomers have been tested to umami intensity as described in example 7.

Assay [3] shares this test system. Briefly: Sensory panel tasting in 0.2% sodium chloride and 0.04% sugar. Particulars: for Intense umami / No umami / Umami: 0.2% sodium chloride and 0.04% sugar, count of tasters. Format: in vivo, human. As to the method:
as §1

For assay [4] the test system is unchanged. Briefly: Sensory panel tasting in 0.2% sodium chloride and 0.04% sugar and 0.08% MSG. Format: in vivo, human. The conditions noted are these: 0.2% sodium chloride, count of tasters. The protocol:
as §1

For assay [5] the test system is unchanged. Briefly: Sensory panel tasting in 0.2% sodium chloride and 0.04% sugar and 0.015% IMP + GMP. The class given is in vivo, human. Particulars: 0.2% sodium chloride, count of tasters. The protocol:
as §1

Assay [6] relates to sensory panel. Briefly: Sensory panel tasting of tomato soups. Format: in vivo, human. Particulars: tomato soup. The protocol: (5R)-(β-D-glucopyranosyloxy)-1,5-dihydro-2H-pyrrol-2-one was added at 500 mg/L (500 ppm) to the soups.

Where two headings read alike, the source gives them in different places.

`N[C@@H](CCC(=O)O)C(=O)[O-].[Na+]` [Monosodium glutamat]: the “threshold (umami)” value in assay [1] was 1500 µmol/L.

In the case of `O=C1C=C[C@@H](O[C@H]2O[C@H](CO)[C@@H](O)[C@H](O)[C@H]2O)N1` [alpha-R, (5R)-(α-D-glucopyranosyloxy)-1,5-dihydro-2H-pyrrol-2-one], in assay [2] (C 200 mg/l), the Intense umami is given as 0, the No umami came to 5 and the Umami was 0. In assay [2] (C 400 mg/l), this compound registered an Intense umami of 0, a No umami of 5 and a Umami of 0. Further, in assay [2] (C 800 mg/l), the Intense umami was determined as 0, the No umami is on record as 5 and the Umami was found to be 0.

In assay [2] (C 100 mg/l), `O=C1C=C[C@H](O[C@H]2O[C@H](CO)[C@@H](O)[C@H](O)[C@H]2O)N1` [alpha-S, (5S)-(α-D-glucopyranosyloxy)-1,5-dihydro-2H-pyrrol-2-one] gave an Intense umami of 0, a No umami of 5 and a Umami of 0. Further, in assay [2] (C 250 mg/l), the Intense umami is 0, the No umami stood at 4 and the Umami was 1. In assay [2] (C 500 mg/l), this compound showed an Intense umami of 0, a No umami of 5 and a Umami of 0.

As for `O=C1C=C[C@H](O[C@@H]2O[C@H](CO)[C@@H](O)[C@H](O)[C@H]2O)N1` [beta-S, (5S)-(β-D-glucopyranosyloxy)-1,5-dihydro-2H-pyrrol-2-one], the Intense umami in assay [2] (C 100 mg/l), in assay [2] (C 200 mg/l) and in assay [2] (C 500 mg/l) was 0 in each case. Also, the No umami in assay [2] (C 100 mg/l) was determined as 5; in assay [2] (C 200 mg/l), 5; in assay [2] (C 500 mg/l), 4. Further, the values for the Umami in assay [2] (C 100 mg/l), in assay [2] (C 200 mg/l) and in assay [2] (C 500 mg/l) were 0, 0 and 1, respectively.

Take “(5R)-(β-D-glucopyranosyloxy)-1,5-dihydro-2H-pyrrol-2-one”: the “threshold (umami)” value is 957 µmol/L in assay [2] (corresponding to 250 mg/l) and 250 mg/L in assay [2] (from Table 1). For the same compound, the “threshold (umami), preferably” value in assay [2] (corresponding to 500 mg/l) was found to be 1914 µmol/L; in assay [2] (from Table 1, 'preferably'), 500 mg/L. The Intense umami is reported as 0 in assay [2] (C 100 mg/l); 1 in assay [2] (C 250 mg/l); 1 in assay [2] (C 500 mg/l); 0 in assay [3] (C 200 mg/l); 2 in assay [3] (C 500 mg/l); 5 in assay [4] (C 200 mg/l). Moreover, the Intense umami in assay [4] (C 500 mg/l) stood at 3; in assay [5] (C 200 mg/l), 0; in assay [5] (C 500 mg/l), 0. Moreover, the No umami in assay [2] (C 100 mg/l) is 5; in assay [2] (C 250 mg/l), 3; in assay [2] (C 500 mg/l), 1; in assay [3] (C 200 mg/l), 3; in assay [3] (C 500 mg/l) it was 2; in assay [4] (C 200 mg/l), 0. The No umami in assay [4] (C 500 mg/l) was determined as 0; in assay [5] (C 200 mg/l), 4; in assay [5] (C 500 mg/l) it was 3. In addition, the Umami was 3 in assay [2] (C 100 mg/l); 4 in assay [2] (C 250 mg/l); 6 in assay [2] (C 500 mg/l); 4 in assay [3] (C 200 mg/l); 3 in assay [3] (C 500 mg/l); 1 in assay [4] (C 200 mg/l). The Umami in assay [4] (C 500 mg/l) is given as 3; in assay [5] (C 200 mg/l) it was 3; in assay [5] (C 500 mg/l), 4. Besides, the umami enhancing property entry in assay [3] (conclusion from Table 2, table 3 and table 4 (salt/sugar base, with MSG, with IMP + GMP)) was “shows the umami enhancing property”. The “tomato soups with and without the compound, perceived difference” value in assay [6] (500 mg/L (500 ppm)) is reported as “perceived as significantly different”. The “savory, umami taste of tomato soups” value in assay [6] (500 ppm) is listed as “increased significantly”.

Values taken from patent publication US20180153203A1, “(5R)-(ß-D-GLUCOPYRANOSYLOXY)-1,5-DIHYDRO-2H-PYRROL-2-ONE AS UMAMI MOLECULE” (priority 2015, published 2018).
